Measured values published in patent publication US11643413B2, “9-(2-oxacycloalkyl)-9H-purine-2,6-diamine derivatives and their use for the treatment of skin disorders” (UNIVERZITA PALACKEHO V OLOMOUCI, priority 2017, dated 2023).
Structures can show the parent of a compound that is named as a salt. Where two headings read alike, the source gives them in different places.

How the values were obtained:
NIH3T3 fibroblasts = experiment: Peroxidation of membrane lipids, MDA by TBA method; type: cell-based, mouse; conditions: FW = fresh weight
Method: A typical symptom associated with aging is the direct consequence of increased concentrations of reactive oxygen species and lipid peroxidation. […] MDA levels were measured using thiobarbituric acid (TBA method). […] The crude extract was centrifuged at 10,000×g for 5 minutes and 100 μl aliquots of the supernatant were mixed with 100 μl of 0.5% (w/v) TBA containing 0.1% (w/v) trichloroacetic acid. The resulting solution was then incubated for 30 min at 95° C. The samples were rapidly cooled on ice and centrifuged for 5 minutes at 1000×g. […] The newly prepared derivatives of the general formula thus have a protective function against the negative effects of reactive oxygen species that accumulate strongly in the tissues.

[1] = test system: BJ (human foreskin fibroblasts); experiment: Calcein AM cytotoxicity, BJ; conditions: read-out: Cytotoxicity IC50, BJ; 72 hours incubation, Calcein AM; highest concentration […]
Description: (§1) One of the parameters used, as the basis for cytotoxicity assays, is the metabolic activity of viable cells. For example, a microtiter assay, which uses the Calcein AM, is now widely used to quantitate cell proliferation and cytotoxicity. […] Because only metabolically active cells cleave Calcein AM, these assays detect viable cells exclusively. The quantity of reduced Calcein AM corresponds to the number of vital cells in the culture.
(§2) Mouse fibroblasts NIH3T3; mouse immortalized bone marrow macrophages B2.4 and B10A.4, and BJ (human foreskin fibroblasts) were used for routine screening of compounds. The cells were maintained in Nunc/Corning 80 cm^2 plastic tissue culture flasks and cultured in cell culture medium (DMEM with 5 g/l glucose, 2 mM glutamine, 100 U/ml penicillin, 100 μg/ml streptomycin, 10% fetal calf serum and sodium bicarbonate).
(§3) The cell suspensions that were prepared and diluted according to the particular cell type and the expected target cell density (2.500-30.000 cells per well based on cell growth characteristics) were added by pipette (80 μl) into 96/well microtiter plates. Inoculates were allowed a pre-incubation period of 24 hours at 37° C. and 5% CO2 for stabilisation. Four-fold dilutions of the intended test concentration were added at time zero in 20 μl aliquots to the microtiter plate wells. Usually, the compound tested was evaluated at six 4-fold dilutions. […] All compound concentrations were examined in duplicates. Incubations of cells with the tested compounds lasted for 72 hours at 37° C., in 5% CO2 atmosphere and 100% humidity. At the end of the incubation period, the cells were assayed by using Calcein AM. Ten microliters of the stock solution were pipetted into each well and incubated for 1 hour. Fluorescence (FD) was measured with the Labsystem FIA Reader Fluoroscan Ascent (UK).

NIH-3T3 [2] = experiment: Calcein AM cytotoxicity, NIH-3T3; conditions: read-out: Cytotoxicity IC50, NIH-3T3; 72 hours incubation, Calcein AM; highest concentration […]
Description: as §1, §2, §3

B10A.4 [3] = experiment: Calcein AM cytotoxicity, B10A.4 (first column); conditions: read-out: Cytotoxicity IC50, B10A.4; 72 hours incubation, Calcein AM; highest concentration […]
Description: as §1, §2, §3

[4] = Radical scavenging activity determined by ORAC; conditions: relative to trolox; Mean ± SD (n = 3)
Method: The ability of compounds to scavenge free radicals in vitro was determined by Oxygen Radical Absorbance Capacity (ORAC) method. In brief, fluorescein (100 μl, […]) and 25 μl of compound solution were added into each working well in a 96-well microplate preincubated at 37° C. Thereafter, 25 μL of 250 mM AAPH was quickly added, microplate was shaken for 5 s and the fluorescence (Ex. 485 nm, Em. 510 nm) was read every 3 min over 90 min by using microplate reader Infinite 200 (TECAN, Switzerland). The net area under the curve was used to express antioxidant activity relative to trolox which was used as a standard.

[5] = Calcein AM cytotoxicity, BJ; conditions: human, BJ foreskin fibroblasts
Description: as §1, §2, §3

[6] = Calcein AM cytotoxicity, NIH-3T3; conditions: mouse, NIH-3T3 fibroblasts
Description: as §1, §2, §3

[7] = Calcein AM cytotoxicity, B10A.4 (first column); conditions: mouse, B10A.4 immortalized bone marrow macrophages
Description: as §1, §2, §3

B10A.4 [8] = test system: B10A.4
Description: as §1, §2, §3

[9] = test system: BJ (human foreskin fibroblasts)
Description: as §1, §2, §3

NIH-3T3 [10] = test system: NIH-3T3
Description: as §1, §2, §3

[11] = test system: Rabbits (New Zealand Albino breed); conditions: New Zealand Albino, rabbit, in vivo, 4 h
Method: The test substance 114 was tested in Animal skin irritation test. Rabbits (New Zealand Albino breed) were used for the test. The test was performed according to ČSN EN ISO 10993 (Březen 2014): Biologické hodnoceni zdravotnických prostředků—část 10: Zkoušky dráždivosti a senzibilizace kůže, článek 6.3 Zkouška dráždivosti na zviřatech (Biological evaluation of medical devices—Part 10: Tests for irritation and delayed-type hypersensitivity). A dose 0.5 g of the test substance was applied to the skin of the back on each side of each rabbit. […] At first the one rabbit (test animal. No. 16) was used. Two other rabbits (rabbit No. 17 and No. 18) were used in confirmatory test. At the end of the contact time (4 hours) the dressings were removed and animals were examined for signs of erythema and oedema, and the response was evaluated at 1, 24, 48 and 72 hours afterpatches removal.

Structure (SMILES) | IC50 (B10A.4 [8]) [µM] | IC50 [9] [µM] | IC50 (NIH-3T3 [10]) [µM] | MDA (NIH3T3 fibroblasts) [nmol/g FW] | also measured
CN(C)c1nc(NCc2ccco2)c2ncn(C3CCO3)c2n1 (stereo not shown) [Compound 3] | – | – | – | 12.4 | IC50 [1]: > 167 µM; IC50 (NIH-3T3 [2]): > 167 µM; IC50 (B10A.4 [3]): > 167 µM
CCN(CC)c1nc(NCc2ccccc2)c2ncn(C3CCO3)c2n1 (stereo not shown) [Compound 9] | – | – | – | 12.2 | IC50 [1]: > 167 µM; IC50 (NIH-3T3 [2]): > 167 µM; IC50 (B10A.4 [3]): > 167 µM
CN(C)c1nc(NCc2ccco2)c2ncn(C3CCCO3)c2n1 (stereo not shown) [Compound 30, 2-(Dimethylamino)-6-furfurylamino-9-(tetrahydrofuran-2-yl)-9H-purine] | – | – | – | 12.6 | ORAC (compound/trolox) [4]: 0.292 ± 0.006; IC50 at 72 h [5]: > 167 µM; IC50 at 72 h [6]: > 167 µM; IC50 at 72 h [7]: > 167 µM
CCNc1nc(NCc2ccc(OC)o2)c2ncn(C3CCCO3)c2n1 (stereo not shown) [Compound 60] | > 167 | > 167 | > 167 | 12.2 | –
CNc1nc(NCc2ccccc2)c2ncn(C3CCCO3)c2n1 (stereo not shown) [Compound 64, 2-(Methylamino)-6-benzylamino-9-(tetrahydrofuran-2-yl)-9H-purine] | – | – | – | – | ORAC (compound/trolox) [4]: 0.24 ± 0.001
CN(C)c1nc(NCc2cccc(O)c2)c2ncn(C3CCCO3)c2n1 (stereo not shown) [Compound 71, 2-(Dimethylamino)-6-(3-hydroxybenzylamino)-9-(tetrahydrofuran-2-yl)-9H-purine] | – | – | – | – | ORAC (compound/trolox) [4]: 5.212 ± 0.238
CN(C)c1nc(NCc2ccc(O)cc2)c2ncn(C3CCCO3)c2n1 (stereo not shown) [Compound 76, 2-(Dimethylamino)-6-[(4-hydroxybenzyl)amino]-9-(tetrahydrofuran-2-yl)-9H-purine] | – | – | – | – | ORAC (compound/trolox) [4]: 0.192 ± 0.005
CNc1nc(NCc2ccc(OC)cc2)c2ncn(C3CCCO3)c2n1 (stereo not shown) [Compound 84, 2-(Methylamino)-6-[(4-methoxybenzyl)amino]-9-(tetrahydrofuran-2-yl)-9H-purine] | – | – | – | 10.6 | IC50 at 72 h [5]: > 167 µM; IC50 at 72 h [6]: > 167 µM; IC50 at 72 h [7]: > 167 µM
COc1cc(CNc2nc(N(C)C)nc3c2ncn3C2CCCO2)ccc1O (stereo not shown) [Compound 89, 2-(Dimethylamino)-6-[(4-hydroxy-3-methoxybenzyl)amino]-9-(tetrahydrofuran-2-yl)-9H-purine] | – | – | – | – | ORAC (compound/trolox) [4]: 4.359 ± 0.183
CNc1nc(NCc2ccco2)c2ncn(C3CCCCO3)c2n1 (stereo not shown) [Compound 110, 2-(Methylamino)-6-furfurylamino-9-(tetrahydro-2H-pyran-2-yl)-9H-purine] | – | – | – | – | ORAC (compound/trolox) [4]: 0.205 ± 0.032
CCNc1nc(NCc2ccco2)c2ncn(C3CCCCO3)c2n1 (stereo not shown) [Compound 111, 2-(ethylamino)-6-furfurylamino-9-(tetrahydro-2H-pyran-2-yl)-9H-purine] | – | – | – | 10.3 | IC50 at 72 h [5]: > 167 µM; IC50 at 72 h [6]: > 167 µM; IC50 at 72 h [7]: > 167 µM
CCNc1nc(NCc2occc2C)c2ncn(C3CCCCO3)c2n1 (stereo not shown) [Compound 119] | – | – | – | 9.7 | IC50 [1]: > 167 µM; IC50 (NIH-3T3 [2]): > 167 µM; IC50 (B10A.4 [3]): > 167 µM
Cc1coc(CNc2nc(NCCN(C)C)nc3c2ncn3C2CCCCO2)c1 (stereo not shown) [Compound 127] | – | – | – | 10.4 | IC50 [1]: > 167 µM; IC50 (NIH-3T3 [2]): > 167 µM; IC50 (B10A.4 [3]): > 167 µM
CNc1nc(NCc2ccc(C)o2)c2ncn(C3CCCCO3)c2n1 (stereo not shown) [Compound 128, 2-(Methylamino)-6-[(5-methylfurfuryl)amino]-9-(tetrahydro-2H-pyran-2-yl)-9H-purine] | – | – | – | – | ORAC (compound/trolox) [4]: 0.461 ± 0.003
Cc1ccc(CNc2nc(NCCN(C)C)nc3c2ncn3C2CCCCO2)o1 (stereo not shown) [Compound 132] | – | – | – | 10.7 | IC50 [1]: > 167 µM; IC50 (NIH-3T3 [2]): > 167 µM; IC50 (B10A.4 [3]): > 167 µM
CN(C)c1nc(NCc2cccc(O)c2)c2ncn(C3CCCCO3)c2n1 (stereo not shown) [Compound 155, 2-(Dimethylamino)-6-[(3-hydroxybenzyl)amino]-9-(tetrahydro-2H-pyran-2-yl)-9H-purine] | – | – | – | – | ORAC (compound/trolox) [4]: 2.422 ± 0.107
CN(C)c1nc(NCc2ccc(O)cc2)c2ncn(C3CCCCO3)c2n1 (stereo not shown) [Compound 160, 2-(Dimethylamino)-6-[(4-hydroxybenzyl)amino]-9-(tetrahydro-2H-pyran-2-yl)-9H-purine] | – | – | – | – | ORAC (compound/trolox) [4]: 0.728 ± 0.016
CCCCCCCCCCCCOS(=O)(=O)O [lauryl sulfate, reference compound] | – | – | – | – | Primary Irritation Index [11]: 1.67

More lines, main results first:

IC50 (B10A.4 [8]) [µM] | IC50 [9] [µM] | IC50 (NIH-3T3 [10]) [µM] | Structure (SMILES) | MDA (NIH3T3 fibroblasts) [nmol/g FW] | also measured
> 167 | > 167 | > 167 | CNc1nc(NCc2cc(C)co2)c2ncn(C3CCCO3)c2n1 (stereo not shown) [Compound 39] | 11.4 | –
> 167 | > 167 | > 167 | CCN(CC)c1nc(NCc2ccc(C)o2)c2ncn(C3CCCO3)c2n1 (stereo not shown) [Compound 47] | 12.5 | –
> 167 | > 167 | > 167 | COc1coc(CNc2nc(NCCN(C)C)nc3c2ncn3C2CCCO2)c1 (stereo not shown) [Compound 58] | 11.4 | –
> 167 | > 167 | > 167 | CNc1nc(NCc2ccc(OC)o2)c2ncn(C3CCCO3)c2n1 (stereo not shown) [Compound 59] | 11.5 | –
> 167 | > 167 | > 167 | CCNc1nc(NCc2ccc(O)cc2)c2ncn(C3CCCO3)c2n1 (stereo not shown) [Compound 75] | 11.7 | –
> 167 | > 167 | > 167 | CCN(CC)c1nc(NCc2cccc(OC)c2)c2ncn(C3CCCO3)c2n1 (stereo not shown) [Compound 82] | 10.9 | –
> 167 | > 167 | > 167 | CCNc1nc(NCc2ccc(OC)cc2)c2ncn(C3CCCO3)c2n1 (stereo not shown) [Compound 85] | 11.1 | –
> 167 | > 167 | > 167 | CCN(CC)c1nc(NCc2ccc(OC)cc2)c2ncn(C3CCCO3)c2n1 (stereo not shown) [Compound 87] | 10.4 | –
> 167 | > 167 | > 167 | CCN(CC)c1nc(NCC=C(C)C)c2ncn(C3CCCO3)c2n1 (stereo not shown) [Compound 93] | 10.5 | –
> 167 | > 167 | > 167 | C/C(=C\CNc1nc(NCCN(C)C)nc2c1ncn2C1CCCO1)CO (stereo not shown) [Compound 99] | 10.2 | –
> 167 | > 167 | > 167 | CCNc1nc(NC/C=C(/C)CO)c2ncn(C3CCCO3)c2n1 (stereo not shown) [Compound 101] | 10.6 | –
> 167 | > 167 | > 167 | CCN(CC)c1nc(NC/C=C(/C)CO)c2ncn(C3CCCO3)c2n1 (stereo not shown) [Compound 103] | 10.1 | –
> 167 | > 167 | > 167 | C/C(=C/CNc1nc(NCCN(C)C)nc2c1ncn2C1CCCO1)CO (stereo not shown) [Compound 104] | 9.6 | –
> 167 | > 167 | > 167 | CNc1nc(NCCC(C)CO)c2ncn(C3CCCO3)c2n1 (stereo not shown) [Compound 105] | 10.6 | –
> 167 | > 167 | > 167 | CC(CO)CCNc1nc(N(C)C)nc2c1ncn2C1CCCO1 (stereo not shown) [Compound 107] | 10.3 | –
> 167 | > 167 | > 167 | CCN(CC)c1nc(NCCC(C)CO)c2ncn(C3CCCO3)c2n1 (stereo not shown) [Compound 108] | 9.7 | –
– | 108 | 94.1 | Oc1ccccc1CNc1ncnc2nc[nH]c12 [ortho-topolin, reference compound] | – | –
